Four compounds from patent EP0908457B1, “3-(1,2-benzisothiazol- and isoxazol-5-Y1)-2,4(1H,3H)-pyrimidinedione or thione and 3-(1,2-benzisothiazol- and isoxazol-5-y1)-4(3H)-pyrimidinone or thione herbicidal agents” (BASF AKTIENGESELLSCHAFT, priority 1997, dated 1999) can be followed below.

Data set [1] deals with Cyperus serotinus, Rottb. Briefly: Preemergence weed control under flooded paddy conditions, CYPSE (Flatsedge). Conditions: preemergence, rated three to four weeks after treatment. The data set is classed as in vivo.
The subject of a further data set is Sagittaria pygmaea, L. Briefly: Preemergence weed control under flooded paddy conditions, SAGPY (Arrowhead (Pygmaea)). Format: in vivo. Conditions: preemergence, flooded paddy, rated three to four weeks after treatment.
Data set [2] deals with Oryza sativa, (L.) Tebonnet. The data set can be described thus: Rice tolerance to post-transplant applications under flooded paddy conditions (Example 187), ORYSAT (Rice, Tebonnet). As to conditions: rated three to four weeks after treatment.
Data set [3] relates to Monochoria vaginalis, Presl. Briefly: Preemergence weed control under flooded paddy conditions, MOOVA (Monochoria). Format: in vivo. Conditions: preemergence, flooded paddy, rated three to four weeks after treatment.
A further data set has as its system Cyperus iria. The data set can be described thus: Preemergence weed control under flooded paddy conditions, CYPIR (Rice Flatsedge). The data set is classed as in vivo. As to conditions: preemergence, flooded paddy, rated three to four weeks after treatment.
Data set [4] relates to Echinochloa oryzoides (Ard.) Fritsch. The data set can be described thus: Preemergence weed control under flooded paddy conditions, ECHORC (Watergrass (Calif.)). The data set is classed as in vivo. Conditions: preemergence, flooded paddy, rated three to four weeks after treatment.
Note: meaning of each grade not given here.

Consider `Cc1ccc(OC(C)C(=O)NS(C)(=O)=O)c(-c2nsc3ccc(-n4c(=O)cc(C(F)(F)F)n(C)c4=O)cc23)c1` (stereo not drawn) [Example 572, Propionamide, 2-{{2-{5-[3,6-dihydro-3-methyl-2,6-dioxo-4-(trifluoromethyl)-1(2H)-pyrimidinyl)-1,2-benzisothiazol-3-yl}-p-tolyl}oxy}-N-(methylsulfonyl)-], for which the “herbicidal effect rating, CYPSE” value in data set [1] (Rate 0.0320 kg/ha) was 0.0; in data set [1] (Rate 0.0620 kg/ha) it was 0.0; in data set [1] (Rate 0.1250 kg/ha) it was 0.0; in data set [1] (Rate 0.2500 kg/ha), 2.0. The “herbicidal effect rating, SAGPY” value in the data set on Sagittaria pygmaea, L. (Rate 0.0320 kg/ha) is 0.0; with Sagittaria pygmaea, L. (Rate 0.0620 kg/ha), 0.0; in the data set with Sagittaria pygmaea, L. (Rate 0.1250 kg/ha) it was 0.0; in the data set with Sagittaria pygmaea, L. (Rate 0.2500 kg/ha) it was 3.0. In addition, the “herbicidal effect rating ORYSAT” value in data set [2] (Rate 0.0320 kg/ha) came to 0.0; in data set [2] (Rate 0.0620 kg/ha) it was 1.0; in data set [2] (Rate 0.1250 kg/ha), 3.0; in data set [2] (Rate 0.2500 kg/ha), 6.0. The “herbicidal effect rating, MOOVA” value in data set [3] (Rate 0.0320 kg/ha) came out at 0.0; in data set [3] (Rate 0.0620 kg/ha) it was 6.0; in data set [3] (Rate 0.1250 kg/ha), 6.0; in data set [3] (Rate 0.2500 kg/ha) it was 9.0. For the same compound, the “herbicidal effect rating, CYPIR” value with Cyperus iria (Rate 0.0320 kg/ha) is recorded as 0.0; with Cyperus iria (Rate 0.0620 kg/ha), 0.0; in the data set on Cyperus iria (Rate 0.1250 kg/ha), 2.0; with Cyperus iria (Rate 0.2500 kg/ha), 5.0. Also, the “herbicidal effect rating, ECHORC” value in data set [4] (Rate 0.0320 kg/ha) amounted to 0.0; in data set [4] (Rate 0.0620 kg/ha) it was 0.0; in data set [4] (Rate 0.1250 kg/ha) it was 2.0; in data set [4] (Rate 0.2500 kg/ha), 6.0.
With `CCCCS(=O)(=O)NC(=O)COc1ccc(C)cc1-c1nsc2ccc(-n3c(=O)cc(C(F)(F)F)n(C)c3=O)cc12` [Example 573, Acetamide, N-(butylsulfonyl)-2-{{2-{5-[3,6-dihydro-3-methyl-2,6-dioxo-4-(trifluoromethyl)-1(2H)-pyrimidinyl]-1,2-benzisothiazol-3-yl}-p-tolyl}oxy}-], the “herbicidal effect rating, CYPSE” value worked out at 0.0 in data set [1] (Rate 0.0320 kg/ha), 0.0 in data set [1] (Rate 0.0620 kg/ha), 0.0 in data set [1] (Rate 0.1250 kg/ha) and 4.0 in data set [1] (Rate 0.2500 kg/ha). The “herbicidal effect rating, SAGPY” value in the data set with Sagittaria pygmaea, L. (Rate 0.0320 kg/ha) is on record as 0.0; in the data set with Sagittaria pygmaea, L. (Rate 0.0620 kg/ha), 0.0; with Sagittaria pygmaea, L. (Rate 0.1250 kg/ha) it was 0.0; in the data set on Sagittaria pygmaea, L. (Rate 0.2500 kg/ha), 2.0. The “herbicidal effect rating ORYSAT” value in data set [2] (Rate 0.0320 kg/ha) turned out to be 0.0; in data set [2] (Rate 0.0620 kg/ha), 0.0; in data set [2] (Rate 0.1250 kg/ha), 0.0; in data set [2] (Rate 0.2500 kg/ha), 1.0. The “herbicidal effect rating, MOOVA” value in data set [3] (Rate 0.0320 kg/ha), in data set [3] (Rate 0.0620 kg/ha), in data set [3] (Rate 0.1250 kg/ha) and in data set [3] (Rate 0.2500 kg/ha) was 9.0 throughout. Moreover, the “herbicidal effect rating, CYPIR” value in the data set with Cyperus iria (Rate 0.0320 kg/ha) came out at 0.0; in the data set on Cyperus iria (Rate 0.0620 kg/ha), 3.0; with Cyperus iria (Rate 0.1250 kg/ha), 5.0; with Cyperus iria (Rate 0.2500 kg/ha), 5.0. Also, the “herbicidal effect rating, ECHORC” value in data set [4] (Rate 0.0320 kg/ha) is 6.0; in data set [4] (Rate 0.0620 kg/ha), 7.0; in data set [4] (Rate 0.1250 kg/ha), 7.0; in data set [4] (Rate 0.2500 kg/ha) it was 7.0.
Turning to `CCCCS(=O)(=O)NC(=O)COc1ccccc1-c1nsc2ccc(-n3c(=O)cc(C(F)(F)F)n(C)c3=O)cc12` [Example 574, Acetamide, N-(butylsulfonyl)-2-{o-{5-[3,6-dihydro-3-methyl-2,6-dioxo-4-(trifluoromethyl)-1(2H)-pyrimidinyl]-1,2-benzisothiazol-3-yl}-phenoxy}-], the “herbicidal effect rating, CYPSE” value came out at 0.0 in data set [1] (Rate 0.0320 kg/ha), 2.0 in data set [1] (Rate 0.0620 kg/ha), 4.5 in data set [1] (Rate 0.1250 kg/ha) and 6.5 in data set [1] (Rate 0.2500 kg/ha). The “herbicidal effect rating, SAGPY” value was determined as 0.0 in the data set on Sagittaria pygmaea, L. (Rate 0.0320 kg/ha); 1.0 in the data set on Sagittaria pygmaea, L. (Rate 0.0620 kg/ha); 2.0 with Sagittaria pygmaea, L. (Rate 0.1250 kg/ha); 6.0 in the data set on Sagittaria pygmaea, L. (Rate 0.2500 kg/ha). The “herbicidal effect rating ORYSAT” value stood at 3.0 in data set [2] (Rate 0.0320 kg/ha), 4.5 in data set [2] (Rate 0.0620 kg/ha), 6.5 in data set [2] (Rate 0.1250 kg/ha) and 8.0 in data set [2] (Rate 0.2500 kg/ha). Moreover, the “herbicidal effect rating, MOOVA” value in data set [3] (Rate 0.0320 kg/ha), in data set [3] (Rate 0.0620 kg/ha), in data set [3] (Rate 0.1250 kg/ha) and in data set [3] (Rate 0.2500 kg/ha) was 9.0 throughout. The “herbicidal effect rating, CYPIR” value in the data set with Cyperus iria (Rate 0.0320 kg/ha) was found to be 2.0; with Cyperus iria (Rate 0.0620 kg/ha) it was 5.5; in the data set with Cyperus iria (Rate 0.1250 kg/ha) it was 6.0; with Cyperus iria (Rate 0.2500 kg/ha), 7.0. Besides, the “herbicidal effect rating, ECHORC” value in data set [4] (Rate 0.0320 kg/ha) was found to be 4.0; in data set [4] (Rate 0.0620 kg/ha), 6.5; in data set [4] (Rate 0.1250 kg/ha), 8.5; in data set [4] (Rate 0.2500 kg/ha) it was 9.0.
`CCCCS(=O)(=O)NC(=O)C(C)Oc1ccc(C)cc1-c1nsc2ccc(-n3c(=O)cc(C(F)(F)F)n(C)c3=O)cc12` (stereo not drawn) [Example 575, Propionamide, N-(butylsulfonyl)-2-{{2-{5-[3,6-dihydro-3-methyl-2,6-dioxo-4-(trifluoromethyl)-1(2H)-pyrimidinyl]-1,2-benzisothiazol-3-yl}-p-tolyl}oxy}-]: the “herbicidal effect rating, CYPSE” value was 0.0 in data set [1] (Rate 0.0320 kg/ha), 0.0 in data set [1] (Rate 0.0620 kg/ha), 0.0 in data set [1] (Rate 0.1250 kg/ha) and 2.0 in data set [1] (Rate 0.2500 kg/ha). Also, the “herbicidal effect rating, SAGPY” value in the data set on Sagittaria pygmaea, L. (Rate 0.0320 kg/ha) is listed as 0.0; in the data set with Sagittaria pygmaea, L. (Rate 0.0620 kg/ha) it was 0.0; in the data set on Sagittaria pygmaea, L. (Rate 0.1250 kg/ha), 0.0; in the data set with Sagittaria pygmaea, L. (Rate 0.2500 kg/ha), 3.0. The “herbicidal effect rating ORYSAT” value in data set [2] (Rate 0.0320 kg/ha) is 0.0; in data set [2] (Rate 0.0620 kg/ha) it was 0.0; in data set [2] (Rate 0.1250 kg/ha), 0.0; in data set [2] (Rate 0.2500 kg/ha), 2.0. Moreover, the “herbicidal effect rating, MOOVA” value in data set [3] (Rate 0.0320 kg/ha) is listed as 4.0; in data set [3] (Rate 0.0620 kg/ha), 4.0; in data set [3] (Rate 0.1250 kg/ha), 9.0; in data set [3] (Rate 0.2500 kg/ha), 9.0. In addition, the “herbicidal effect rating, CYPIR” value amounted to 0.0 with Cyperus iria (Rate 0.0320 kg/ha), 0.0 in the data set on Cyperus iria (Rate 0.0620 kg/ha), 4.0 in the data set on Cyperus iria (Rate 0.1250 kg/ha) and 6.0 in the data set on Cyperus iria (Rate 0.2500 kg/ha). Further, the “herbicidal effect rating, ECHORC” value in data set [4] (Rate 0.0320 kg/ha) was 2.0; in data set [4] (Rate 0.0620 kg/ha), 5.0; in data set [4] (Rate 0.1250 kg/ha) it was 6.0; in data set [4] (Rate 0.2500 kg/ha), 9.0.
